In patent US8501732B2, “Aminomethyl quinolone compounds” (Hoffmann-La Roche Inc., priority 2011, dated 2013):
Where a name gives a salt, the structure may show the parent alone.

The compounds below were run against JNK1 (Homo sapiens (Human), UniProt P45983) (assay: In Vitro JNK1 Assay (TR-FRET, phosphorylation of GST-c-Jun)). Settings: 0.2 nM active JNK1 kinase, 26.7 nM GST-c-Jun, 2 μM ATP, 30 min at room temperature.
Format: biochemical
Protocol: Phosphorylation of GST-c-Jun protein (amino acid residues 1-79) was measured as JNK1 activity. […] The reaction buffer contained 50 mM HEPES, pH […], 1 mM DTT, 0.1 mM Na3VO4 and 0.2 mg/mL BSA. After 30 min. incubation at room temperature, the reaction was terminated by adding buffer containing 8 mM EDTA and a polyclonal anti-phospho-c-Jun antibody (Cell Signaling #9261L), followed by an additional incubation of 30 min. at room temperature. […] Time-resolved Fluorescence Resonance Energy Transfer (TR-FRET) signals were measured 1 hr. later on the EnVision reader (Perkin Elmer). Compound potency was assessed at 10 serially diluted concentrations. Percentage of inhibition at each concentration was determined to generate an IC50 value for each compound.

JNK1, sequence (P45983 whole entry): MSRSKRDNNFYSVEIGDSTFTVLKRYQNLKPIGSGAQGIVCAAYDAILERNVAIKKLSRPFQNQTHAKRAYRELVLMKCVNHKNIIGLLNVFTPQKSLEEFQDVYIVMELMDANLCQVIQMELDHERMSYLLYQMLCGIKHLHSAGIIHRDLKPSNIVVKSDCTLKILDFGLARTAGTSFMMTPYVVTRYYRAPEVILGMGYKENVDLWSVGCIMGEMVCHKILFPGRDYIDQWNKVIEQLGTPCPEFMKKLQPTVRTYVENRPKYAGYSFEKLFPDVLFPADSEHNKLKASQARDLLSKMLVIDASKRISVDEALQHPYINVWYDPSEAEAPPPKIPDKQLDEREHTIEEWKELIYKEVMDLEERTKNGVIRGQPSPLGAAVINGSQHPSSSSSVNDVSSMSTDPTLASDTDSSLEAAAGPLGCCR

Going from “1-(4-Chloro-3-fluoro-phenyl)-3-(7-chloro-4-oxo-1-phenyl-1,4-dihydro-quinolin-3-yl-methyl)-urea [Example I-204]” to `COC(=O)c1ccc(C(=O)NCc2c(-c3ncco3)n(-c3ccccc3)c3cc(Cl)ccc3c2=O)cn1` [Example I-5, 5-[(7-Chloro-2-oxazol-2-yl-4-oxo-1-phenyl-1,4-dihydro-quinolin-3-ylmethyl)-carbamoyl]-pyridine-2-carboxylic acid methyl ester], the IC50 falls from 1100 nM to 25 nM (44-fold).

First: O=C(NCc1c(-c2ncco2)n(-c2ccccc2)c2cc(Cl)ccc2c1=O)c1ccc(Cl)nc1 [Example I-6, 6-Chloro-N-(7-chloro-2-oxazol-2-yl-4-oxo-1-phenyl-1,4-dihydro-quinolin-3-ylmethyl)-nicotinamide]
Second: CN(C)C(=O)c1c(CNC(=O)c2ccc(N3CCOCC3)cc2)c(=O)c2ccc(Cl)cc2n1-c1ccccc1 [Example I-17, 7-Chloro-3-[(4-morpholin-4-yl-benzoylamino)-methyl]-4-oxo-1-phenyl-1,4-dihydro-quinoline-2-carboxylic acid dimethylamide]
The IC50 of the first is 4.8-fold lower: 29 nM for the first, 140 nM for the second.

First: CN(C)C(=O)c1c(CNC(=O)c2ccc(-c3cnco3)cc2)c(=O)c2ccc(Cl)cc2n1-c1ccccc1 [Example I-18, 7-Chloro-3-[(4-oxazol-5-yl-benzoylamino)-methyl]-4-oxo-1-phenyl-1,4-dihydro-quinoline-2-carboxylic acid dimethylamide]
Second: CN(C)C(=O)c1c(CNC(=O)c2ccc(F)cc2)c(=O)c2ccc(Cl)cc2n1-c1ccccc1 [Example I-20, 7-Chloro-3-[(4-fluoro-benzoylamino)-methyl]-4-oxo-1-phenyl-1,4-di-hydro-quinoline-2-carboxylic acid dimethylamide]
The IC50 of the first is 1.6-fold lower: 150 nM for the first, 240 nM for the second. The first is the more potent here.

Compared with `CN(C)C(=O)c1c(CNC(=O)c2ccc3c(c2)OCCO3)c(=O)c2ccc(Cl)cc2n1-c1ccccc1` [Example I-21, 7-Chloro-3-{[(2,3-dihydro-benzo[1,4]dioxine-6-carbonyl)-amino]-methyl}-4-oxo-1-phenyl-1,4-dihydro-quinoline-2-carboxylic acid dimethylamide], `O=C(NCc1cn(-c2ccccc2)c2cc(Cl)ccc2c1=O)c1ccn(Cc2cccc(Cl)c2)c(=O)c1` [Example I-44, 1-(3-Chloro-benzyl)-2-oxo-1,2-dihydro-pyridine-4-carboxylic acid (7-chloro-4-oxo-1-phenyl-1,4-dihydro-quinolin-3-ylmethyl)-amide] is 4.2-fold lower in IC50: 460 nM for the first, 110 nM for the second. The second is the more potent here.

`Cn1cnc2cc(C(=O)NCc3cn(-c4ccccc4)c4cc(Cl)ccc4c3=O)cnc21` [Example I-45, 3-Methyl-3H-imidazo[4,5-b]pyridine-6-carboxylic acid (7-chloro-4-oxo-1-phenyl-1,4-dihydro-quinolin-3-ylmethyl)-amide] and `O=C(NCc1cn(-c2ccccc2)c2cc(Cl)ccc2c1=O)c1ccc2cc[nH]c2c1` [Example I-46, 1H-Indole-6-carboxylic acid (7-chloro-4-oxo-1-phenyl-1,4-dihydro-quinolin-3-ylmethyl)-amide] are within 1.5-fold of each other in IC50: 110 nM for the first, 140 nM for the second.

`O=C(NCc1cn(-c2ccccc2)c2cc(Cl)ccc2c1=O)c1ccc(-c2cnco2)cc1` [Example I-47, N-(7-Chloro-4-oxo-1-phenyl-1,4-dihydro-quinolin-3-ylmethyl)-4-oxazol-5-yl-benzamide] and `COc1ccccc1Cn1ccc(C(=O)NCc2cn(-c3ccccc3)c3cc(Cl)ccc3c2=O)cc1=O` [Example I-48, 1-(2-Methoxy-benzyl)-2-oxo-1,2-dihydro-pyridine-4-carboxylic acid (7-chloro-4-oxo-1-phenyl-1,4-dihydro-quinolin-3-ylmethyl)-amide] are within 1.5-fold of each other in IC50: 170 nM for the first, 180 nM for the second.

`O=C(NCc1cn(-c2ccccc2)c2cc(Cl)ccc2c1=O)c1cnc2nc[nH]c2c1` [Example I-49, 1H-Imidazo[4,5-b]pyridine-6-carboxylic acid (7-chloro-4-oxo-1-phenyl-1,4-dihydro-quinolin-3-ylmethyl)-amide] and `NC(=O)c1ccc(C(=O)NCc2cn(-c3ccccc3)c3cc(Cl)ccc3c2=O)cc1` [Example I-50, N-(7-Chloro-4-oxo-1-phenyl-1,4-dihydro-quinolin-3-ylmethyl)-terephthal-amide] are within 1.5-fold of each other in IC50: 230 nM for the first, 300 nM for the second.

`CC(C)(C)OC(=O)N1CCC(C(=O)NCc2cn(-c3ccccc3)c3cc(Cl)ccc3c2=O)C1` (centres unmarked) [Example I-51, 3-[(7-Chloro-4-oxo-1-phenyl-1,4-dihydro-quinolin-3-ylmethyl)-carbamoyl]-pyrrolidine-1-carboxylic acid tert-butyl ester] and `O=C(NCc1cn(-c2ccccc2)c2cc(Cl)ccc2c1=O)c1ccc(=O)n(Cc2ccccc2)c1` [Example I-52, 1-Benzyl-6-oxo-1,6-dihydro-pyridine-3-carboxylic acid (7-chloro-4-oxo-1-phenyl-1,4-dihydro-quinolin-3-ylmethyl)-amide] are within 1.5-fold of each other in IC50: 330 nM for the first, 380 nM for the second.

`Cn1cc(C(=O)NCc2cn(-c3ccccc3)c3cc(Cl)ccc3c2=O)nn1` [Example I-53, 1-Methyl-1H-[1,2,3]triazole-4-carboxylic acid (7-chloro-4-oxo-1-phenyl-1,4-dihydro-quinolin-3-ylmethyl)-amide] and `Cn1ccc(C(=O)NCc2cn(-c3ccccc3)c3cc(Cl)ccc3c2=O)cc1=O` [Example I-54, 1-Methyl-2-oxo-1,2-dihydro-pyridine-4-carboxylic acid (7-chloro-4-oxo-1-phenyl-1,4-dihydro-quinolin-3-ylmethyl)-amide] are within 1.5-fold of each other in IC50: 560 nM for the first, 670 nM for the second.

Going from `O=C(NCc1cn(-c2ccccc2)c2cc(Cl)ccc2c1=O)c1cn(Cc2ccccc2)nn1` [Example I-55, 1-Benzyl-1H-[1,2,3]triazole-4-carboxylic acid (7-chloro-4-oxo-1-phenyl-1,4-dihydro-quinolin-3-ylmethyl)-amide] to `O=C(NCc1cn(-c2ccccc2)c2cc(Cl)ccc2c1=O)c1cnc(N2CCOCC2)nc1` [Example I-56, 2-Morpholin-4-yl-pyrimidine-5-carboxylic acid (7-chloro-4-oxo-1-phenyl-1,4-dihydro-quinolin-3-ylmethyl)-amide], the IC50 falls from 700 nM to 190 nM (3.7-fold). The second is the more potent here.

Compared with `O=C(NCc1cn(-c2ccccc2)c2cc(Cl)ccc2c1=O)c1cc(F)cc(F)c1` [Example I-58, N-(7-Chloro-4-oxo-1-phenyl-1,4-dihydro-quinolin-3-ylmethyl)-3,5-difluoro-benzamide], `O=C(NCc1cn(-c2ccccc2)c2cc(Cl)ccc2c1=O)c1cccc(F)c1F` [Example I-59, N-(7-Chloro-4-oxo-1-phenyl-1,4-dihydro-quinolin-3-ylmethyl)-2,3-difluoro-benzamide] is 2.7-fold higher in IC50: 630 nM for the first, 1700 nM for the second.

Going from `O=C(NCc1cn(-c2ccccc2)c2cc(Cl)ccc2c1=O)c1cc(F)ccc1F` [Example I-60, N-(7-Chloro-4-oxo-1-phenyl-1,4-dihydro-quinolin-3-ylmethyl)-2,5-difluoro-benzamide] to `O=C(NCc1cn(-c2ccccc2)c2cc(Cl)ccc2c1=O)c1ccc(Cl)nc1` [Example I-61, 6-Chloro-N-(7-chloro-4-oxo-1-phenyl-1,4-dihydro-quinolin-3-ylmethyl)-nicotinamide], the IC50 falls from 1900 nM to 430 nM (4.4-fold). The second is the more potent here.

`NC(=O)C1CCN(c2ccc(C(=O)NCc3cn(-c4ccccc4)c4cc(Cl)ccc4c3=O)cn2)CC1` [Example I-86, 3,4,5,6-Tetrahydro-2H-[1,2′]bipyridinyl-4,5′-dicarboxylic acid 4-amide-5′-[(7-chloro-4-oxo-1-phenyl-1,4-dihydro-quinolin-3-ylmethyl)-amide]] and `O=C(NCc1cn(-c2ccccc2)c2cc(Cl)ccc2c1=O)c1ccc(N2CC[C@H](O)C2)nc1` [Example I-87, N-(7-Chloro-4-oxo-1-phenyl-1,4-dihydro-quinolin-3-ylmethyl)-6-((S)-3-hydroxy-pyrrolidin-1-yl)-nicotinamide] are within 1.5-fold of each other in IC50: 110 nM for the first, 120 nM for the second.

Going from `CN1CCN(c2ccc(C(=O)NCc3cn(-c4ccccc4)c4cc(Cl)ccc4c3=O)cn2)CC1` [Example I-88, N-(7-Chloro-4-oxo-1-phenyl-1,4-dihydro-quinolin-3-ylmethyl)-6-(4-methyl-piperazin-1-yl)-nicotinamide] to `NC1CCN(c2ccc(C(=O)NCc3cn(-c4ccccc4)c4cc(Cl)ccc4c3=O)cn2)CC1` [Example I-90, 4-Amino-3,4,5,6-tetrahydro-2H-[1,2′]bipyridinyl-5′-carboxylic acid (7-chloro-4-oxo-1-phenyl-1,4-dihydro-quinolin-3-ylmethyl)-amide trifluoroacetate], the IC50 falls from 250 nM to 130 nM (1.9-fold).

`O=C(NCc1cn(-c2ccccc2Cl)c2cc(Cl)ccc2c1=O)c1ccc(Br)nc1` [Example I-101, 6-Bromo-N-[7-chloro-1-(2-chloro-phenyl)-4-oxo-1,4-dihydro-quinolin-3-ylmethyl]-nicotinamide] and `O=C(NCc1cn(-c2ccccc2Cl)c2cc(Cl)ccc2c1=O)c1ccc(-c2cn[nH]c2)nc1` [Example I-102, N-[7-Chloro-1-(2-chloro-phenyl)-4-oxo-1,4-dihydro-quinolin-3-ylmethyl]-6-(1H-pyrazol-4-yl)-nicotinamide] are within 1.5-fold of each other in IC50: 600 nM for the first, 740 nM for the second.

First: O=C(NCc1cn(-c2ccccc2F)c2cc(F)ccc2c1=O)c1ccc(Cl)nc1 [Example I-105, 6-Chloro-N-[7-fluoro-1-(2-fluoro-phenyl)-4-oxo-1,4-dihydro-quinolin-3-yl-methyl]-nicotinamide]
Second: O=C(NCc1cn(-c2ccccc2F)c2cc(F)ccc2c1=O)c1ccc(N2CCS(=O)(=O)CC2)nc1 [Example I-107, 6-(1,1-Dioxo-1-thiomorpholin-4-yl)-N-[7-fluoro-1-(2-fluoro-phenyl)-4-oxo-1,4-dihydro-quinolin-3-ylmethyl]-nicotinamide]
The IC50 of the first is 1.5-fold higher: 150 nM for the first, 100 nM for the second. The second is the more potent here.
